One test has as its system RPMI 8226 tumor. The experiment in a line: RPMI 8226 human myeloma tumor xenograft. The test is classed as in vivo, CB17 SCID mice. The following applies: LT1009 50 mg/kg IP Q3D to end; Bortezomib iv Q3D×6. As to the method: Nude mice (CB17 SCID, aged 4-5 weeks, weight 18-22 gm, female mice obtained from Harlan) were injected sc with RPMI 8226 cells harvested from tissue culture (˜1×10^7 cells/mouse). When tumors grew to approximately 100 mm^3 in size, animals were pair-matched by tumor size into treatment and control groups (10 mice per group). Initial dosing began Day 1 following pair-matching. Animals in all groups were dosed by weight (0.01 ml per gram; 10 ml/kg). […] Bortezomib was administered by intravenous injection via tail vein once every three days for six treatments (Q3D×6).
Individual and group mean tumor volumes±SEM are recorded twice weekly until study completion beginning Day 1. Final mean tumor volume±SEM for each group are reported at study completion; animals experiencing partial or complete tumor regressions or animals experiencing technical or drug-related deaths are censored from these calculations.

The test system of test [1] is Matrigel plug neovascularization. The experiment in a line: In vivo Matrigel plug assay for neovascularization (S1P, VEGF, bFGF). On the set-up: species or system mice. The following applies: Matrigel with 1 μM S1P. The method, then:
Based on in vivo studies showing that S1P increased endothelial capillary growth into subcutaneously implanted Matrigel plugs, we speculated that SPHINGOMAB could reduce de novo BV formation in vivo. To investigate this, we employed the in vivo Matrigel Plug assay for neovascularization. In one set of experiments, Matrigel was supplemented with either 1 μM S1P, 0.5 μg/mL bFGF or 1 μg/mL VEGF and then […]. into mice (n=4). After 10 days, the mice were heparinized and injected with the fluorescent lectin, Isolectin B4-FITC, which binds to adhesion molecules expressed by vascular EC that form the growing BVs. The plugs were then excised, frozen in OCT, sectioned and viewed for FITC-stained BVs.
Sections of the plugs were then stained with hemotoxyln & eosin for evaluation of EC infiltration (FIG. 6B). The infiltration of ECs is a critical step in neo-vascularization. […] Cell infiltration is presumed to be ECs although we recognize that other cell types such as immune cells may also be stained.
Endogenous S1P from the blood and surrounding tissue could supply a wound with pro-angiogenic stimuli. The ability of SPHINGOMAB to reduce endogenous S1P in a wound was investigated. Optimally stimulated plugs (Matrigel supplemented with 0.5 μg/mL bFGF or […] VEGF) were implanted into mice. Mice received i.p. injections of 25 mg/kg SPHINGOMAB or saline every 48 hrs starting 1 day prior to Matrigel implantation. Each treatment group (Matrigel, Matrigel plus GF or Matrigel plus GF and administered SPHINGOMAB) consisted of a minimum of 6 mice. After 10 days, the mice were treated with heparin, injected with Isolectin B4-FITC, the plugs excised, embedded in OCT freezing medium and sectioned.

The test system of test [2] is human retinal pigmented epithelial cells. The experiment in a line: alpha-SMA expression (myofibroblast transformation) in retinal pigmented epithelial cells. The test is classed as cell-based. An excerpt:
(§1) In many of these disorders, circulating growth factors and chemokines promote the transformation of normal ocular cells into fibrocontractile, scar tissue-producing cells that have been termed “myofibroblasts”. Normally, myofibroblasts are responsible for tissue repair as part of the wound healing response following injury. However altered number and function of myofibroblasts are implicated in diseases characterized by pathological scar tissue formation in the liver, skin, lung, kidney, heart and eyes. In the eye, transformation of retinal pigmented epithelial (RPE) cells to a myofibroblast phenotype is linked to formation of fibro-contractile membranes which cause retinal detachment and subsequent vision impairment. In addition, myofibroblast transformation of ocular fibroblasts can result in abnormal scar tissue production after eye injury leading to subsequent vision loss. Although many of the circulating protein factors in the eye that promote myofibroblast formation have been identified, nothing is known regarding the role of lysolipids such as S1P in this process. Therefore, we examined the effects of S1P on myofibroblast transformation of several human ocular cell lines.
In these experiments, the ability of S1P to promote α-SMA expression differed in a concentration dependent manner between the retinal pigmented epithelial cells and conjunctiva fibroblasts. […]

In a further test the test system is HUVECs. Nature of the test: HUVEC Matrigel chemoinvasion (migration) assay. Type of test: cell-based, human. The following applies: 0.1-1 μM S1P. As to the method: FIG. 5 has two panels, A and B. In panel A, S1P is shown to promote neovascularization through induction of HUVECs tube formation and migration, which is reduced by SPHINGOMAB. […] The number of cells that migrated to the Matrigel membrane were counted in five independent fields.
Experiments were performed as described by Visentin et al. (Cancer Cell 2006 March; 9(3):225-38).

The subject of test [3] is human conjunctiva fibroblasts. The experiment in a line: alpha-SMA and PAI-1 expression in conjunctiva fibroblasts. The test is classed as cell-based.
Description: as §1
In these experiments, the ability of S1P to promote α-SMA expression differed in a concentration dependent manner between the retinal pigmented epithelial cells and conjunctiva fibroblasts. […] This difference is believed to result from increased S1P receptor expression in the epithelial cells compared to the fibroblasts. Due to increased S1P receptor expression levels, retinal pigmented epithelial cells are likely more sensitive to S1P at low concentrations. In contrast, at high S1P levels the receptors become […] or possibly even internalized leading to decreased stimulation by S1P.
Collagen is one of the primary structural proteins that supports all tissues in the body and is one of the main components of scar tissue. In the non-pathological setting, total collagen content within tissue is maintained via a balance between collagen production by fibroblasts and degradation by certain enzymes. […]

The subject of a further test is HT29 tumor. The experiment in a line: SC HT29 colorectal tumor xenograft. The settings on record: LT1009 50 mg/kg ip q2d; Avastin 20 mg/kg iv q4d; 5-FU 75 mg/kg ip q4d. The test is classed as in vivo, athymic NCr-nu/nu mice. As to the method: Nude mice were implanted sc near the right flank with one fragment per mouse of HT29 tumor from an in vivo passage. All treatments were initiated the day when 60 mice in each experiment established tumors ranging in size from approximately 100 to 200 mm^3. There were ten mice per treatment group. […] 75 mg/kg 5-FU and 20 mg/kg Avastin were administered ip and iv at a dosage of 75 mg/kg/dose and 20 mg/kg/dose, respectively, q4d, injected in a volume of 0.1 mL/10 g body weight.
(§2) Animals were observed daily for mortality. Tumor dimensions and body weights were collected twice weekly starting with the first day of treatment and including the day of study termination. When the median tumor in the vehicle-treated control group in each study reached approximately 4,000 mg, the study was terminated. Tumors from each animal were harvested, wet weights were recorded, and tumors were processed for determination of MVD by CD-31 staining. Tumor weights (mg) were calculated using the equation for an ellipsoid sphere (l×w^2)/2=mm^3, where l and w refer to the larger and smaller dimensions collected at each measurement and assuming unit density (1 mm^3=1 mg).

For the next test, the system named is DU145 tumor. The experiment in a line: SC DU145 prostate tumor xenograft. The test is classed as in vivo, nude NCr (nu/nu) mice. The settings on record: LT1009 50 mg/kg ip q2d; Avastin 20 mg/kg q4d; Paclitaxel 7.5 mg/kg q1d×5. The method, then:
Nude mice were implanted sc near the right flank with one fragment per mouse of DU145 tumor from an in vivo passage. All treatments were initiated the day when 60 mice in each experiment established tumors ranging in size from approximately 100 to 200 mm^3. […] Paclitaxel and Avastin were administered iv and ip at a dosage of 7.5 mg/kg/dose and 20 mg/kg/dose, q1d×5 and q4d, respectively, injected in a volume of 0.1 mL/10 g body weight.
During the course of the study tumor growth was monitored by measuring the sc tumors on three axes and calculating the volume. At the end of the study final tumor weights and volumes were determined and then the mice were sacrificed, the tumors harvested. Microvascular densities (MVD) of the tumors were then determined by CD-31 staining.

A further test deals with COLO205 tumor. Nature of the test: SC COLO205 colorectal tumor xenograft. The test is classed as in vivo, nude NCr (nu/nu) mice. The settings on record: LT1009 50 mg/kg ip q3d; Avastin 40 mg/kg iv q7d; Paclitaxel 15 mg/kg iv q1d×5. The method, then: Nude mice were implanted sc near the right flank with one fragment per mouse of COLO 205 tumor from an in vivo passage. All treatments were initiated the day when 60 mice in each experiment established tumors ranging in size from approximately 100 to 200 mm3. […] Avastin was administered iv at a dosage of 40 mg/kg/dose on a q7d schedule, injected in a volume of 0.1 mL/20 g body weight. Paclitaxel (positive control), was administered iv at a dosage of 15 mg/kg/dose on a q1d×5 schedule, injected in a volume of 0.1 mL/10 g body weight.
as §2, with “recorded,” for “recorded, and”, “microvascular densities (MVD)” for “MVD”

Another test deals with peripheral lymphocytes. The following applies: single oral dose; cited from earlier work.
Test [4] concerns experimental autoimmune encephalomyelitis. The settings on record: 0.1 mg/kg p.o. or higher doses; cited from earlier work.
Another test relates to exudative AMD. The settings on record: 2 year MARINA trial and 1 year ANCHOR trial; cited from earlier work.

Where “and” joins values, the source holds several entries; their conditions need not be identical. Equal entries are not always repeated.

In the case of `CC(C)C[C@H](NC(=O)[C@H](Cc1ccccc1)NC(=O)c1cnccn1)B(O)O` [Bortezomib, reference compound], in the test with RPMI 8226 tumor, the “% Reduction compared to Vehicle-Treated Mice” value (“% Reduction” for short) came to 20% and the “Final Tumor Weights” value was 1664 mg.
In the case of `CCCCCCCCCCCCC/C=C/[C@@H](O)[C@@H](N)COP(=O)(O)O` [S1P, sphingosine-1-phosphate], the “increase of EC infiltration in comparison to Matrigel only plugs” value in [1] turned out to be 3 fold. In test [2], the “S1P concentration at which a significant increase in α-SMA expression was observed” value was found to be 0.001 µM and the “production of α-Smooth muscle actin (α-SMA)” value is “stimulates production”. In addition, the “stimulation of HUVEC migration over non-treated HUVECs” value in the test on HUVECs was 2-2.5 fold. In test [3], the PAI-1 expression result was “stimulates the PAI-1 expression in a dose-dependent manner”, the “S1P concentration at which a significant increase in α-SMA expression was observed” value amounted to 10 µM and the “production of α-Smooth muscle actin (α-SMA)” value is on record as “stimulates production”.
As to `O=c1[nH]cc(F)c(=O)[nH]1` [5-FU, 5-fluorouracil], in the test with HT29 tumor, the “% Reduction” value was determined as 28% and the “Final Tumor Weights” value came to 1963.71 mg.
As to “Avastin: anti-angiogenic drug, bevacizumab (Avastin, Genentech)”, the “% Reduction” value in the test on HT29 tumor is 30%; in the test with DU145 tumor it was 80% and 79%; in the test on COLO205 tumor, 35%. Further, the “Final Tumor Weights” value was 1927.44 mg in the test on HT29 tumor, 578 mg in the test with DU145 tumor and 1967.90 mg in the test with COLO205 tumor.
On to `CCCCCCCCc1ccc(CCC(N)(CO)CO)cc1.Cl` [FTY720, 2-amino-2-(2-[4-octylphenyl]ethyl)-1,3-propanediol hydrochloride], for which the “reduction of peripheral lymphocyte counts” value in the test with peripheral lymphocytes is 30-70%. The “paralysis in EAE” value in [4] is “almost completely prevents paralysis”.
Turning to `CC(=O)O[C@H]1C(=O)[C@@]2(C)[C@H]([C@H](OC(=O)c3ccccc3)[C@]3(O)C[C@H](OC(=O)[C@H](O)[C@@H](NC(=O)c4ccccc4)c4ccccc4)C(C)=C1C3(C)C)[C@]1(OC(C)=O)CO[C@@H]1C[C@@H]2O` [Paclitaxel], in the test on DU145 tumor, the “% Reduction” value was found to be 80% and the “Final Tumor Weights” value was found to be 539 mg. In the test on COLO205 tumor, the “% Reduction” value was determined as 100% and the “Final Tumor Weights” value amounted to 0 mg.

B1: RANIBIZUMAB: antibody fragment inhibiting all isoforms of VEGF-A (antibody, chains of the INN, looked up, V domains shown)
VH: EVQLVESGGGLVQPGGSLRLSCAASGYDFTHYGMNWVRQAPGKGLEWVGWINTYTGEPTYAADFKRRFTFSLDTSKSTAYLQMNSLRAEDTAVYYCAKYPYYYGTSHWYFDVWGQGTLVTVSS
VL: DIQLTQSPSSLSASVGDRVTITCSASQDISNYLNWYQQKPGKAPKVLIYFTSSLHSGVPSRFSGSGSGTDFTLTISSLQPEDFATYYCQQYSTVPWTFGQGTKVEIK
modifications: Fab
Turning to B1, in the test with exudative AMD, the “patients achieving some visual gain” value is listed as “approximately 40%”.

(Values after US8026342B2, “Compositions and methods for binding sphingosine-1-phosphate” (Lpath, Inc., priority 2006, dated 2011).)
